Experimental data: article PMC12675387, “Receptor interaction profiles of 4-alkoxy-2,6-dimethoxyphenethylamines (Ψ derivatives) and related amphetamines” (Frontiers in Pharmacology, 2025)

Key:
[1] = molecular target: h5-HT2A receptor (Homo sapiens, UniProt P28223); test: Radioligand binding, 5-HT2A receptor ([3H]ketanserin); conditions: for fold increase in 5-HT2A affinity over the 4-methoxy analog: pairs Ψ-2C-O-1/Ψ-2C-O-35 and TMA-6/Ψ-DODFMO; for Selectivity (binding ratio) 5-HT2A/5-HT2C: preference for 5-HT2A (Ki 5-HT2C divided by Ki 5-HT2A); for Selectivity (binding ratio) 5-HT2A/5-HT1A: preference for 5-HT2A (Ki 5-HT1A divided by Ki 5-HT2A)
[2] = molecular target: T1, human 5-HT2A receptor (Homo sapiens, UniProt P28223); test: Activation potency and efficacy at the 5-HT2A receptor (FLIPR calcium, NIH-3T3 cells); assay type: cell-based; conditions: for Emax: NIH3T3, relative to 5-HT (100%), read-out: h5-HT2A activation efficacy Emax ± SD
T1 construct: expressed in transfected cells; host or cells: NIH-3T3 mouse embryonic fibroblasts
Procedure: The activation potency and efficacy at the 5-HT2A receptor were determined as previously described by [Luethi et al. (2018)]. In short, mouse embryonic fibroblasts (NIH-3T3 cells) stably transfected with the human 5-HT2A receptor were seeded in poly-D-lysine-coated 96 well plates at a density of 70,000 cells per 100 μL. Next, the cells were incubated in HEPES-Hank’s Balanced Salt Solution (HBSS) buffer (Gibco) for 1 h at 37 °C; the cells were then incubated with 100 μL of dye solution (fluorescence imaging plate reader [FLIPR] calcium 5 assay kit; Molecular Devices, Sunnyvale, CA, United States) per well for 1 h at 37 °C. The plate was then inserted into the FLIPR and 25 μL of the test compounds diluted in HEPES-HBSS buffer containing […] probenecid were added online. Increase of the fluorescence signal was measured and the activation potency (EC50) was calculated from the dose-response curves using nonlinear regression. The activation efficacy was calculated relative to 5-HT activity (defined as 100% activity).

[3] = molecular target: T2, h5-HT2C receptor (Homo sapiens, UniProt P28335); test: Radioligand binding, 5-HT2C receptor ([3H]mesulergine)
T2 sequence (P28335 33-458): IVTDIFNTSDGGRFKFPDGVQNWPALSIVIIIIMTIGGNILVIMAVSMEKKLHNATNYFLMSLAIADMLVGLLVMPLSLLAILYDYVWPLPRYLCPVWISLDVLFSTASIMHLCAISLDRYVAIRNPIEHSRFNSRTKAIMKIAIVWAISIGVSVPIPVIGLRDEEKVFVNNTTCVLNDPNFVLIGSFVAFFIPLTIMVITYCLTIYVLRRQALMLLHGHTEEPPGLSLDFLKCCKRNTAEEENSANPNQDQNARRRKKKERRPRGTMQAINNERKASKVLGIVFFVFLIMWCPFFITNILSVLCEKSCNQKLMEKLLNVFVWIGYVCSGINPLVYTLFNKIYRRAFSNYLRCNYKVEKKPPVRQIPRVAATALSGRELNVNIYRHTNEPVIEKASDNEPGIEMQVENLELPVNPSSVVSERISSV

[4] = molecular target: T3, hα2A adrenergic receptor (Homo sapiens, UniProt P08913); test: Radioligand binding, α2A adrenergic receptor ([3H]rauwolscine)
T3 sequence (P08913 1-465): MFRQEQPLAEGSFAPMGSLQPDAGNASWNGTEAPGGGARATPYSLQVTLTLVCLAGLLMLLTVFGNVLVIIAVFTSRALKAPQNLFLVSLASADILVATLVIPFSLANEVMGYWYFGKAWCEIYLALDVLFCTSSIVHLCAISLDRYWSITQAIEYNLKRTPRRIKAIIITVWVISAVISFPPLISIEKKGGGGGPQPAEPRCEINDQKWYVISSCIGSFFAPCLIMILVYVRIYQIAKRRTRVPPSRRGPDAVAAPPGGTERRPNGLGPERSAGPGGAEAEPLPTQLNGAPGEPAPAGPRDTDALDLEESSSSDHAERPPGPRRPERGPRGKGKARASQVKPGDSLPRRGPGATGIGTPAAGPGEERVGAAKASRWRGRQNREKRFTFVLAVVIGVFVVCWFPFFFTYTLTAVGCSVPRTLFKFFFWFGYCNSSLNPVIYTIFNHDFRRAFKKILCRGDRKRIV

[5] = molecular target: hD2 receptor (Homo sapiens, UniProt P14416); test: Radioligand binding, dopaminergic D2 receptor ([3H]spiperone)
Chain of hD2 receptor (P14416 whole entry): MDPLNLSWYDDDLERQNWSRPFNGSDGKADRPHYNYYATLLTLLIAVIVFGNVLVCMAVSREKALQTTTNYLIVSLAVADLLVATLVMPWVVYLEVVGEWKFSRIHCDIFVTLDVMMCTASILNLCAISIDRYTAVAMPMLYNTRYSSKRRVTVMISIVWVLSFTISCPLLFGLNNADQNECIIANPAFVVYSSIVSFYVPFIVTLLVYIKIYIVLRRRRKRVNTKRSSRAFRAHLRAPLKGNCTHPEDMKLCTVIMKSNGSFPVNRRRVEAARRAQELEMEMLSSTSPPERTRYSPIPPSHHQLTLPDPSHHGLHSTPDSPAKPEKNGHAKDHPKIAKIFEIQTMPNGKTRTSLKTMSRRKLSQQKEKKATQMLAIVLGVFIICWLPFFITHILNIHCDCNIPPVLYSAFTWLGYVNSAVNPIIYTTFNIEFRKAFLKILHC

Chain of h5-HT2A receptor (P28223 whole entry): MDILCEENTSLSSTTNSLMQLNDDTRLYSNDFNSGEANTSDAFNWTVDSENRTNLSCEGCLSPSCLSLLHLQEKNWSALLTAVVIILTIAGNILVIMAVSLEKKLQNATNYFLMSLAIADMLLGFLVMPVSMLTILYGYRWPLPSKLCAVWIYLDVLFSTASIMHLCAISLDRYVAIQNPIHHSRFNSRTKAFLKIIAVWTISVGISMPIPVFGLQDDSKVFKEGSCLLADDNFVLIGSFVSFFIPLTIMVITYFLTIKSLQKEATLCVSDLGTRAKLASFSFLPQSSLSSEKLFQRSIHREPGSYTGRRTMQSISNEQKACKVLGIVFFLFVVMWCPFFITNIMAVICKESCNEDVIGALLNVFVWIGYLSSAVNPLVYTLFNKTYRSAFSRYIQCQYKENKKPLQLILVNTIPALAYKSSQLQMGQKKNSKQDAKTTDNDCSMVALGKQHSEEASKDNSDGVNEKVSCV
T1 sequence (P28223 whole entry): as above

SMILES	Ki [1] [nM]	fold increase in 5-HT2A affinity over the 4-methoxy analog [1]	Selectivity (binding ratio) 5-HT2A/5-HT2C [1]	EC50 [2] [nM]	Emax [2] [%]	Ki [3] [nM]	Ki [4] [nM]	Ki [5] [nM]	Selectivity (binding ratio) 5-HT2A/5-HT1A [1]	fold difference in 5-HT2A receptor affinity between Ψ derivative and its 2,4,5-trisubstituted counterpart ([1]; TMA-6 vs TMA-2, Ψ-2C-O-16 vs 2C-O-16, Ψ-MALM vs MALM: higher affinity of the Ψ derivative)	type of agonism at the 5-HT2A receptor [2]
COc1cc(OC(F)F)cc(OC)c1CCN [Ψ-2C-O-35, 4-(2,2-difluoromethoxy)-2,6-dimethoxyphenethylamine]	72 ± 18	3–4 fold	7.1	260 ± 200	16 ± 2	510 ± 140	450 ± 70	> 6000			
COc1cc(OC(F)F)cc(OC)c1CC(C)N (stereo not drawn) [Ψ-DODFMO, 4-(2,2-difluoromethoxy)-2,6-dimethoxyamphetamine]	84 ± 23	3–4 fold	21	300 ± 100	54 ± 4	1800	2300	> 6000	61		
C=CCOc1cc(OC)c(CC(C)N)c(OC)c1 (stereo not drawn) [Ψ-MALM, 4-allyloxy-2,6-dimethoxyamphetamine]	75 ± 11		10	180 ± 70	66 ± 6	780 ± 330	1800	> 6000	>75	2–5 fold	partial agonists
COc1cc(OCc2ccccc2)cc(OC)c1CC(C)N (stereo not drawn) [Ψ-MBnM, 4-benzyloxy-2,6-dimethoxyamphetamine]	21 ± 2		13	430 ± 150	39 ± 6	270 ± 50	2000	> 6000			
COc1cc(OCC(F)F)cc(OC)c1CC(C)N (stereo not drawn) [Ψ-MDFEM, 4-(2,2-difluoroethoxy)-2,6-dimethoxyamphetamine]	950 ± 240		10	1100	34 ± 7	9500	3300	> 6000	>6		
CCOc1cc(OC)c(CC(C)N)c(OC)c1 (stereo not drawn) [Ψ-MEM, 2,6-dimethoxy-4-ethoxyamphetamine]	490 ± 20		10	650 ± 210	54 ± 5	5100	2200	> 6000	>11		
COc1cc(OCCF)cc(OC)c1CC(C)N (stereo not drawn) [Ψ-MFEM, 2,6-dimethoxy-4-(2-fluoroethoxy)amphetamine]	1400		7.1	1300	37 ± 2	10000	4100	> 6000	>4		
C=C(C)COc1cc(OC)c(CC(C)N)c(OC)c1 (stereo not drawn) [Ψ-MMALM, 2,6-dimethoxy-4-methallyloxyamphetamine]	52 ± 10		5.6	58 ± 28	68 ± 9	290 ± 90	1400	> 6000	>108		partial agonists
COc1cc(OCC(F)(F)F)cc(OC)c1CC(C)N (stereo not drawn) [Ψ-MTFEM, 2,6-dimethoxy-4-(2,2,2-trifluoroethoxy)amphetamine]	570 ± 80		9.6	1100	33 ± 6	5500	3800	> 6000	>10		
